Test results: US6414038B2, “Hydroxystilbenes for reducing/inhibiting protein glycation and combating skin aging” (Societe L'Oreal, priority 1999, dated 2002)
Like-named read-outs stand apart in the source and are kept apart here.

Target: bovine serum albumin (Bos taurus, UniProt P02769)
Test: Inhibition of glycation of bovine serum albumin by D-ribose (AGE fluorescence)
Assay type: biochemical
Settings: for inhibition at 1 µM / inhibition at 10 µM: read-out: % inhibition (of glycation)
Procedure: A solution of bovine serum albumin at 1 mg/ml in solution in phosphate buffered saline (PBS) was incubated at 37° C. for 14 days in the presence or in the absence of D-ribose at the concentration of […], of 3,3′,5,5′-tetrahydroxystilbene or of resveratrol, each at the concentrations of 1 μM and 10 μM.
The glycation was evaluated by measuring the fluorescence of the AGEs at λem.=440 nm emitted by each sample after excitation at λex.=370 nm.
The inhibition of glycation was visualized by the reduction in the fluorescence compared with the sample treated with the sugar alone.

Sequence of bovine serum albumin (P02769 25-607): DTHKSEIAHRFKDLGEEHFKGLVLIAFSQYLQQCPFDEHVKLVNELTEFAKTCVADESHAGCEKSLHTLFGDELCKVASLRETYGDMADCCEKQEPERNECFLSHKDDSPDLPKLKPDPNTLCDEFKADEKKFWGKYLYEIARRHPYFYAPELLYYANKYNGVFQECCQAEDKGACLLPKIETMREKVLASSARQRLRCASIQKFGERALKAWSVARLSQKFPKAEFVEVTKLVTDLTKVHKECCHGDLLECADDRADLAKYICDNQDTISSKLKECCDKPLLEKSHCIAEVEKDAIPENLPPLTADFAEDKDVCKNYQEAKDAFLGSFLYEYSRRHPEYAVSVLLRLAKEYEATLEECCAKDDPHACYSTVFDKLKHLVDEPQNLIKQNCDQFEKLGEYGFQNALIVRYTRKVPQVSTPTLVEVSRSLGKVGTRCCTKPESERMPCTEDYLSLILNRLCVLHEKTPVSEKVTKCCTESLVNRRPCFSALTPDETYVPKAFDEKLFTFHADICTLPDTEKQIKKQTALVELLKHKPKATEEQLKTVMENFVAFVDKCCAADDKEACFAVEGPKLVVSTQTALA

| SMILES | antiglycation effect relative to resveratrol (at the concentration of 10 μM) [times] | antiglycation effect (in words) (from the concentration of 1 μM) | inhibition at 1 µM [%] | inhibition at 10 µM [%] | inhibition at 1 µM (compound 1 μM, BSA 1 mg/ml in PBS, D-ribose 10 μM, 37° C., 14 days, AGE fluorescence λex 370 nm/λem 440 nm vs sugar alone) [%] | inhibition at 10 µM (compound 10 μM, BSA 1 mg/ml in PBS, D-ribose 10 μM, 37° C., 14 days, AGE fluorescence λex 370 nm/λem 440 nm vs sugar alone) [%] |
| --- | --- | --- | --- | --- | --- | --- |
| Oc1cc(O)cc(/C=C/c2cc(O)cc(O)c2)c1 [A, 3,3′,5,5′-tetrahydroxystilbene] | ~2 | advantageous antiglycation effect | 7.1 | 14.3 |  |  |
| Oc1ccc(C=Cc2cc(O)cc(O)c2)cc1 [B, resveratrol, reference compound] |  |  |  |  | 7.1 | 7.1 |
